Source: patent US5594024A, “Centrally actig substituted phenylazacycloalkanes” (priority 1995, dated 1997)

How the values were obtained:
5-HT1A = biological target: T1, 5-HT1A (Rattus norvegicus, UniProt P19327); experiment: 5-HT1A radioligand binding ([3H]-8-OH-DPAT); design: species or system rat (male Sprague-Dawley)
T1 construct: the whole brain with the exception of the brainstem and cerebellum was rapidly removed; from tissue
T1 sequence (P19327 1-422): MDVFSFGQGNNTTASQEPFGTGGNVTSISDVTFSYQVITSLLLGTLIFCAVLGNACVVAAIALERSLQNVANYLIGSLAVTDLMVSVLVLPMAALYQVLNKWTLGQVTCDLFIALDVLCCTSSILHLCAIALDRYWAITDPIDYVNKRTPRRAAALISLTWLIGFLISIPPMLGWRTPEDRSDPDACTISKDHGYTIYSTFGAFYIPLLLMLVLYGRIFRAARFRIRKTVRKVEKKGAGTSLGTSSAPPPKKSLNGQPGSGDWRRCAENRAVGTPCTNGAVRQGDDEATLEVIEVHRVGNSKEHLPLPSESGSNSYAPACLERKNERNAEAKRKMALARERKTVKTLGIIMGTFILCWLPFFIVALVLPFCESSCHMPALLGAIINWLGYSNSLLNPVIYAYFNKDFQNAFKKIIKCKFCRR
In short: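 Rat forebrain membranes (whole brain minus brainstem and cerebellum) in 50 mM Tris pH 8.0 with NaCl, CaCl2, MgCl2 and 10 μM pargyline; 1 nM [3H]-8-OH-DPAT, 15 min at 37° C., filtration. Nonspecific binding defined with 10 μM 5-HT; IC50 by semi-log plot and linear regression.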

[1] = system: d-amphetamine-induced hyperactivity; experiment: d-Amphetamine-induced hyperactivity in habituated rats; assay type: in vivo, rat

CCCN1CCC[C@@H](c2cccc(C#N)c2)C1 [S-(-)-34, S-(-)-3-(3-Cyanophenyl-N-n-propyl)piperidine]
affinity for the 5-HT1A receptors in vitro (in words) (5-HT1A): very low affinity for the 5-HT1A receptors | IC50 (5-HT1A; [3H]-8-OH-DPAT, rat cortex, read-out: in vitro binding IC50, 5HT1A): 75 µM | effect on d-amphetamine-induced hyperactivity ([1]; 64 mg/kg, sc, d-amphetamine 5.0 mg/kg): failed to block the hyperactivity | effect combined with lower dose of d-amphetamine ([1]; d-amphetamine 0.5 mg/kg, sc): additive stimulatory effect | block of d-amphetamine-induced hyperactivity (in words) ([1]; even at high doses): failed to block d-amphetamine-induced hyperactivity even at high doses | effect on activation induced by high dose d-amphetamine ([1]; test compound 14 mg/kg, sc, d-amphetamine 5 mg/kg): failed to affect the strong activation
